Laboratory results as given in patent US20180188224A1, “METHOD FOR CONSTRUCTING A SENSORY SPACE” (CENTRE SCIENTIFIQUE ET TECHNIQUE DU BATIMENT (CSTB), priority 2015, published 2018).

Columns and labels:
Format in all cases: in vivo, human
[1] = tested on: four non-smoking volunteers (2 men and 2 women); assay: Taste identification questionnaire, trained panel (count of 6 repetitions per subject in which the stimulus was given each taste label; level of recognition %); conditions: for Level of Recognition %: Bitter / Level of Recognition %: Neutral / Level of Recognition %: Salty / Level of Recognition %: Sour / Level of Recognition %: Sweet: four subjects
Protocol: (§1) In this test, four non-smoking volunteers (2 men and 2 women) were chosen from 12 people for their performance in taste recognition. Their mean age was 32 years, ranging from 24 to 40 years. […] These four people were trained for several months to recognize and detect the four basic tastes, and also regarding the procedures of sensory and physiological analysis.
(§2) The four basic tastes (sweet, salty, sour and bitter) were used. The solutions were prepared with citric acid for the sour taste, caffeine for the bitter taste, sodium chloride for the salty taste and sucrose for the sweet taste (all purchased from Sigma Aldrich, France) in Evian water. Evian water was also used as control and blank. Each taste was prepared with the four concentrations mentioned in table 1.
(§3) The amount of solution to be tested was standardized at 10 ml. In order to impregnate the whole of the oral cavity, the subjects kept the solution in their mouth for 5 s before swallowing it.
(§4) The sessions were individual and the subjects were asked not to eat or drink anything for at least 1 h before the test. They arrived 15 min before the start of the session in order to acclimatize to the environmental conditions, in particular the temperature of the room (kept constant at 23° C.) and to be resting seated on a comfortable chair. The 16 solutions for testing and two additional samples of water containing solely Evian water, added to the references, were presented monadically following a test order determined from a “balanced incomplete block design”. During a session, 9 samples out of 18 were presented to minimize sensory fatigue. In addition, a sample of Evian was always tested as a “blank” sample in order to avoid the first-order effect (Lawless, H. T. & Heymann, H., 2010, Sensory evaluation of food: Principles and practices. Springer, New York) and was excluded from the analysis. A light signal was sent to give the instruction to test the sample. When the disturbance to the nervous system returned to its baseline level (after approximately 1 min), a second light signal indicated to the subjects that they should complete a questionnaire regarding the stimulus tested previously. The first part of the questionnaire was linked to the identification of the taste (i.e. determining the quality of the taste); the subjects had to choose between five labels: sweet, salty, sour, bitter or neutral. They then had to assign a taste intensity score on an 11-point scale (from 0 “not intense” (i.e. taste of Evian only) to 10 “very intense”) and finally to give a hedonic score on an 11-point scale (from 0 “very unpleasant” to 10 “very pleasant”, 5 being “neutral”).
(§5) This procedure was repeated for each of the 9 stimuli. A session lasted approximately 45 min including a debriefing at the end of the test to ensure understanding of the sense of the signal variations. The experiment was repeated 12 times per subject, meaning that the data are composed of 6 data sets per subject and per product and 12 data sets for the Evian product per subject. Thus, the database consists of 432 samples.

[2] = tested on: four non-smoking volunteers (2 men and 2 women); assay: Taste intensity score, 11-point scale (0 not intense to 10 very intense); conditions: averaged over 4 subjects, 6 repetitions each
Protocol: as §1, §2, §3, §4, §5
(§6) The effect of the taste on the hedonic and intensity scores was analyzed by an analysis of variance (ANOVA) including the product effect, the subject effect and the product-subject interaction. The subject effect was fixed because there were only 4 subjects and the results could only be applied to a particular schema. The differences were considered to be significant at a level of 0.05.

[3] = tested on: four non-smoking volunteers (2 men and 2 women); assay: Hedonic score, 11-point scale (0 very unpleasant to 10 very pleasant, 5 neutral); conditions: concentration 4 (highest)
Protocol: as §1, §2, §3, §4, §5, §6

Compound: O=C(O)CC(O)(CC(=O)O)C(=O)O [Citric acid, citric acid]
- Individual recognition score: Bitter ([1]; Subject 1, dilution 1): 1
- Individual recognition score: Neutral ([1]; Subject 1, dilution 1): 3
- Individual recognition score: Salty ([1]; Subject 1, dilution 1): 0
- Individual recognition score: Sour ([1]; Subject 1, dilution 1): 1
- Individual recognition score: Sweet ([1]; Subject 1, dilution 1): 1
- Individual recognition score: Bitter ([1]; Subject 1, dilution 2): 1
- Individual recognition score: Neutral ([1]; Subject 1, dilution 2): 4
- Individual recognition score: Salty ([1]; Subject 1, dilution 2): 0
- Individual recognition score: Sour ([1]; Subject 1, dilution 2): 1
- Individual recognition score: Sweet ([1]; Subject 1, dilution 2): 0
- Individual recognition score: Bitter ([1]; Subject 1, dilution 3): 0
- Individual recognition score: Neutral ([1]; Subject 1, dilution 3): 0
- Individual recognition score: Salty ([1]; Subject 1, dilution 3): 0
- Individual recognition score: Sour ([1]; Subject 1, dilution 3): 6
- Individual recognition score: Sweet ([1]; Subject 1, dilution 3): 0
- Individual recognition score: Bitter ([1]; Subject 1, dilution 4): 0
- Individual recognition score: Neutral ([1]; Subject 1, dilution 4): 0
- Individual recognition score: Salty ([1]; Subject 1, dilution 4): 0
- Individual recognition score: Sour ([1]; Subject 1, dilution 4): 6
- Individual recognition score: Sweet ([1]; Subject 1, dilution 4): 0
- Individual recognition score: Bitter ([1]; Subject 2, dilution 1): 0
- Individual recognition score: Neutral ([1]; Subject 2, dilution 1): 5
- Individual recognition score: Salty ([1]; Subject 2, dilution 1): 0
- Individual recognition score: Sour ([1]; Subject 2, dilution 1): 0
- Individual recognition score: Sweet ([1]; Subject 2, dilution 1): 1
- Individual recognition score: Bitter ([1]; Subject 2, dilution 2): 0
- Individual recognition score: Neutral ([1]; Subject 2, dilution 2): 3
- Individual recognition score: Salty ([1]; Subject 2, dilution 2): 0
- Individual recognition score: Sour ([1]; Subject 2, dilution 2): 2
- Individual recognition score: Sweet ([1]; Subject 2, dilution 2): 1
- Individual recognition score: Bitter ([1]; Subject 2, dilution 3): 0
- Individual recognition score: Neutral ([1]; Subject 2, dilution 3): 0
- Individual recognition score: Salty ([1]; Subject 2, dilution 3): 0
- Individual recognition score: Sour ([1]; Subject 2, dilution 3): 6
- Individual recognition score: Sweet ([1]; Subject 2, dilution 3): 0
- Individual recognition score: Bitter ([1]; Subject 2, dilution 4): 0
- Individual recognition score: Neutral ([1]; Subject 2, dilution 4): 0
- Individual recognition score: Salty ([1]; Subject 2, dilution 4): 0
- Individual recognition score: Sour ([1]; Subject 2, dilution 4): 6
- Individual recognition score: Sweet ([1]; Subject 2, dilution 4): 0
- Individual recognition score: Bitter ([1]; Subject 3, dilution 1): 2
- Individual recognition score: Neutral ([1]; Subject 3, dilution 1): 3
- Individual recognition score: Salty ([1]; Subject 3, dilution 1): 0
- Individual recognition score: Sour ([1]; Subject 3, dilution 1): 1
- Individual recognition score: Sweet ([1]; Subject 3, dilution 1): 0
- Individual recognition score: Bitter ([1]; Subject 3, dilution 2): 4
- Individual recognition score: Neutral ([1]; Subject 3, dilution 2): 1
- Individual recognition score: Salty ([1]; Subject 3, dilution 2): 0
- Individual recognition score: Sour ([1]; Subject 3, dilution 2): 1
- Individual recognition score: Sweet ([1]; Subject 3, dilution 2): 0
- Individual recognition score: Bitter ([1]; Subject 3, dilution 3): 0
- Individual recognition score: Neutral ([1]; Subject 3, dilution 3): 0
- Individual recognition score: Salty ([1]; Subject 3, dilution 3): 0
- Individual recognition score: Sour ([1]; Subject 3, dilution 3): 6
- Individual recognition score: Sweet ([1]; Subject 3, dilution 3): 0
- Individual recognition score: Bitter ([1]; Subject 3, dilution 4): 0
- Individual recognition score: Neutral ([1]; Subject 3, dilution 4): 0
- Individual recognition score: Salty ([1]; Subject 3, dilution 4): 0
- Individual recognition score: Sour ([1]; Subject 3, dilution 4): 6
- Individual recognition score: Sweet ([1]; Subject 3, dilution 4): 0
- Individual recognition score: Bitter ([1]; Subject 4, dilution 1): 3
- Individual recognition score: Neutral ([1]; Subject 4, dilution 1): 2
- Individual recognition score: Salty ([1]; Subject 4, dilution 1): 0
- Individual recognition score: Sour ([1]; Subject 4, dilution 1): 1
- Individual recognition score: Sweet ([1]; Subject 4, dilution 1): 0
- Individual recognition score: Bitter ([1]; Subject 4, dilution 2): 1
- Individual recognition score: Neutral ([1]; Subject 4, dilution 2): 1
- Individual recognition score: Salty ([1]; Subject 4, dilution 2): 0
- Individual recognition score: Sour ([1]; Subject 4, dilution 2): 4
- Individual recognition score: Sweet ([1]; Subject 4, dilution 2): 0
- Individual recognition score: Bitter ([1]; Subject 4, dilution 3): 0
- Individual recognition score: Neutral ([1]; Subject 4, dilution 3): 0
- Individual recognition score: Salty ([1]; Subject 4, dilution 3): 0
- Individual recognition score: Sour ([1]; Subject 4, dilution 3): 6
- Individual recognition score: Sweet ([1]; Subject 4, dilution 3): 0
- Individual recognition score: Bitter ([1]; Subject 4, dilution 4): 0
- Individual recognition score: Neutral ([1]; Subject 4, dilution 4): 0
- Individual recognition score: Salty ([1]; Subject 4, dilution 4): 0
- Individual recognition score: Sour ([1]; Subject 4, dilution 4): 6
- Individual recognition score: Sweet ([1]; Subject 4, dilution 4): 0
- Level of Recognition %: Bitter ([1]; dilution 1): 25%
- Level of Recognition %: Neutral ([1]; dilution 1): 54%
- Level of Recognition %: Salty ([1]; dilution 1): 0%
- Level of Recognition %: Sour ([1]; dilution 1): 13%
- Level of Recognition %: Sweet ([1]; dilution 1): 8%
- Level of Recognition %: Bitter ([1]; dilution 2): 25%
- Level of Recognition %: Neutral ([1]; dilution 2): 38%
- Level of Recognition %: Salty ([1]; dilution 2): 0%
- Level of Recognition %: Sour ([1]; dilution 2): 33%
- Level of Recognition %: Sweet ([1]; dilution 2): 4%
- Level of Recognition %: Bitter ([1]; dilution 3): 0%
- Level of Recognition %: Neutral ([1]; dilution 3): 0%
- Level of Recognition %: Salty ([1]; dilution 3): 0%
- Level of Recognition %: Sour ([1]; dilution 3): 100%
- Level of Recognition %: Sweet ([1]; dilution 3): 0%
- Level of Recognition %: Bitter ([1]; dilution 4): 0%
- Level of Recognition %: Neutral ([1]; dilution 4): 0%
- Level of Recognition %: Salty ([1]; dilution 4): 0%
- Level of Recognition %: Sour ([1]; dilution 4): 100%
- Level of Recognition %: Sweet ([1]; dilution 4): 0%
- intensity score ([2]; concentration 1): 1.2±1.5
- intensity score ([2]; concentration 2): 1.0±1.0
- intensity score ([2]; concentration 4): 8.4±1.2
- hedonic score [3]: 3.3±2.4
